According to patent US20210346459A1, “Application of Dalargin for the prevention of VRIs and prevention of the development of complications during VRIs” (priority 2020, published 2021):
Where two headings read alike, the source gives them in different places. Marks after values point to notes of the source that are not given here. Square brackets hold non-standard residues; d marks the D form. Peptide text beside a SMILES is read from it.

Columns and labels:
[1] = system: influenza virus A/Puerto Rico/8/34 (H1N1); type: in vivo, Balb/c mice
[2] = application to skin or mucosae at any concentration; cited from earlier work
[3] = Group 4: inhalation of 1% solution 14 min twice a day, 0.36 mg/kg
[4] = Group 4: inhalation of 1% solution 14 min twice a day, 0.36 mg/kg, 30 animals
[5] = Group 5: inhalation of 3% solution 45 min twice a day, 1.74 mg/kg
[6] = Group 5: inhalation of 3% solution 45 min twice a day, 1.74 mg/kg, 30 animals
[7] = Group 6: inhalation of 5% solution 55 min twice a day, 3.54 mg/kg
[8] = Group 6: inhalation of 5% solution 55 min twice a day, 3.54 mg/kg, 30 animals
[9] = Group 8: inhalation of 3% solution 45 min twice a day, prophylactic only
[10] = Group 8: inhalation of 3% solution 45 min twice a day, prophylactic only (days 3, 2, 1 and 1 hour before challenge), 30 animals
[11] = Group 9: nasally + pharyngeal spray 0.5 mg/kg, prophylactic only
[12] = Group 9: nasally + pharyngeal spray 0.5 mg/kg, prophylactic only, 30 animals

CC(C)C[C@H](NC(=O)[C@H](Cc1ccccc1)NC(=O)CNC(=O)[C@@H](C)NC(=O)[C@@H](N)Cc1ccc(O)cc1)C(=O)N[C@@H](CCCNC(=N)N)C(=O)O [Dalargin, tyrosyl-D-alanyl-glycyl-phenylalanyl-leucyl-arginine diacetate] (H-Y[dA]GFLR-OH)
Protective effect on lung tissue and lung function compared with comparators ([1]; Dalargin inhalation): superior to that of Tamiflu and Kagocel
Mortality, % [1, 3]: 10.00%
Protective index, % [1, 3]: 88.46%
Mortality by day 9 [1, 4]: 2
Mortality by day 11 [1, 4]: 1
Residue [1, 4]: 27*
Mortality, % [1, 5]: 6.67%
Protective index, % [1, 5]: 92.30%
Mortality by day 8 [1, 6]: 1
Mortality by day 10 [1, 6]: 1
Residue [1, 6]: 28*
Mortality, % [1, 7]: 6.67%
Protective index, % [1, 7]: 92.30%
Mortality by day 7 [1, 8]: 1
Mortality by day 10 [1, 8]: 1
Residue [1, 8]: 28*
Mortality, % [1, 9]: 40.00%
Protective index, % [1, 9]: 53.85%
Mortality by day 5 [1, 10]: 1
Mortality by day 6 [1, 10]: 3
Mortality by day 7 [1, 10]: 2
Mortality by day 8 [1, 10]: 3
Mortality by day 9 [1, 10]: 3
Residue ([1]; Group 8: inhalation of 3% solution 45 min twice a day, prophylactic only, 30 animals): 18
Mortality, % [1, 11]: 50.00%
Protective index, % [1, 11]: 42.31%
Mortality by day 6 [1, 12]: 4
Mortality by day 7 [1, 12]: 4
Mortality by day 8 [1, 12]: 4
Mortality by day 9 [1, 12]: 2
Mortality by day 10 [1, 12]: 1
Residue [1, 12]: 15
Histological features of lung tissue, day 3 after challenge ([1]; oedema, neutrophilic infiltration, collapsed alveolae relative to control): far less pronounced
Efficacy attributed exclusively to the prophylactic protective effect ([1]; preventive administration, without the therapeutic component): 50%
Histological features of lung tissue, day 12 ([1]; surviving animals): One half of the animals receiving Dalargin exhibited no signs of pathology
Local irritation [2]: does not produce local irritation
